By melting point is commonly meant the temperature of the solid-liquid transition.

Structures can show the parent of a compound that is named as a salt.

Molecule `CC1(C)CC(=O)N(CC(COc2ccc(-c3ccc(C#N)cc3)cc2)N(O)C=O)C(=O)C1` (stereo not shown) (as salt: potassium) [Example 50, N-[1-[[(4′-cyano[1,1′-biphenyl]-4-yl)oxy]methyl]-2-(4,4-dimethyl-2,6-dioxo-1-piperidinyl)ethyl]-N-hydroxyformamide] came in with a melting point of 121 °C.
On to `N#Cc1ccc(-c2ccc(OCC(COc3ccccc3)N(O)C=O)cc2)cc1` (racemic) [Example 1, (±)-N-[1-[[(4′-cyano-[1,1′-biphenyl]-4-yl)oxy]methyl]-2-phenoxyethyl]-N-hydroxyformamide], for which the melting point lay in the range of 133 to 135 °C.
As to `N#Cc1ccc(-c2ccc(OCC(CN3C(=O)c4ccccc4C3=O)N(O)C=O)cc2)cc1` (racemic) [Example 3, (±)-N-[1-[[(4′-cyano-[1,1′-biphenyl]-4-yl)oxy]methyl]-2-(2,3-dihydro-1,3-dioxo-1H-isoindol-2-yl)ethyl]-N-hydroxyformamide], the melting point lay within 199 to 202 °C.
`CCC(C)C(COc1ccc(-c2ccc(C#N)cc2)cc1)N(O)C=O` (racemic) [Example 8, (±)-N-[1-[[(4′-cyano-[1,1′-biphenyl]-4-yl)oxy]methyl]-2-methylbutyl]-N-hydroxyformamide] displayed a melting point of 96 to 98 °C.
Turning to `CCCCC(COc1ccc(-c2ccc(C#N)cc2)cc1)N(O)C=O` (racemic) [Example 9, (±)-N-[1-[[(4′-cyano-[1,1′-biphenyl]-4-yl)oxy]methyl]pentyl]-N-hydroxyformamide], the melting point lay within 105 to 108 °C.
On to `Cc1ccc(CC(COc2ccc(-c3ccc(C#N)cc3)cc2)N(O)C=O)cc1` (racemic) [Example 10, (±)-N-[1-[[(4′-cyano-[1,1′-biphenyl]-4-yl)oxy]methyl]-2-(4-methylphenyl)ethyl]-N-hydroxyformamide], for which the melting point fell in the range of 173 to 175 °C.
The molecule `N#Cc1ccc(-c2ccc(OCC(c3ccc(F)cc3)N(O)C=O)cc2)cc1` (racemic) [Example 11, (±)-N-[2-[(4′-cyano-[1,1′-biphenyl]-4-yl)oxy]-1-(4-fluorophenyl)ethyl]-N-hydroxyformamide] yielded a melting point of 194 to 196 °C.
Next, `CC(COc1ccc(-c2ccc(C#N)cc2)cc1)N(O)C=O` (racemic) [Example 13, (±)-N-[1-[[(4′-cyano-[1,1′-biphenyl]-4-yl)oxy]methyl]ethyl]-N-hydroxyformamide]: 141 to 144 °C; `O=CN(O)C(CS(=O)(=O)c1ccc(-c2ccc(C(F)(F)F)cc2)cc1)c1cccnc1` (racemic) [Example 120, (±)-N-hydroxy-N-[1-(3-pyridinyl)-2-[[4′-(trifluoromethyl)[1,1′-biphenyl]-4-yl]sulfonyl]ethyl]formamide]: 186.5 to 188.8 °C.
Next, `CC(CS(=O)(=O)c1ccc(-c2ccc(C(F)(F)F)cc2)cc1)N(O)C=O` (racemic) [Example 122, (±)-N-hydroxy-N-[1-methyl-2-[[4′-(trifluoromethyl)[1,1′-biphenyl]-4-yl]sulfonyl]ethyl]formamide]: 174.6 to 175.2 °C; `O=CN(O)C(CS(=O)(=O)c1ccc(-c2ccc(C(F)(F)F)cc2)cc1)c1ccccn1` (racemic) [Example 123, (±)-N-hydroxy-N-[1-(2-pyridinyl)-2-[[4′-(trifluoromethyl) [1,1′-biphenyl]-4-yl]sulfonyl]ethyl]formamide]: 168.5 to 168.9 °C.
`CC1(C)CC(=O)N(CC(CS(=O)(=O)c2ccc(-c3ccc(C(F)(F)F)cc3)cc2)N(O)C=O)C(=O)C1` (racemic) [Example 124, (±)-N-[1-[(4,4-dimethyl-2,6-dioxo-1-piperidinyl)methyl]-2-[[4′-(trifluoromethyl)[1,1′-biphenyl]-4-yl]sulfonyl]ethyl]-N-hydroxyformamide] had a melting point of 185.6 to 187.3 °C.
`O=CN(O)C(CCO)CS(=O)(=O)c1ccc(-c2ccc(C(F)(F)F)cc2)cc1` (racemic) [Example 125, (±)-N-hydroxy-N-[3-hydroxy-1-[[[4′-(trifluoromethyl)[1,1′-biphenyl]-4-yl]sulfonyl]methyl]propyl]formamide] yielded a melting point of 186.5 to 188.8 °C.
The molecule `COCC(CS(=O)(=O)c1ccc(-c2ccc(C(F)(F)F)cc2)cc1)N(O)C=O` (racemic) [Example 126, (±)-N-hydroxy-N-[1-(methoxymethyl)-2-[[4′-(trifluoromethyl)[1,1′-biphenyl]-4-yl]sulfonyl]ethyl]formamide] gave a melting point of 175.3 to 176.3 °C.
The figure for `O=CN(O)C(CS(=O)(=O)c1ccc(-c2ccc(C(F)(F)F)cc2)cc1)c1ccc2c(c1)OCO2` (racemic) [Example 127, (±)-N-[1-(1,3-benzodioxol-5-yl)-2-[[4′-(trifluoromethyl)[1,1′-biphenyl]-4-yl]sulfonyl]ethyl]-N-hydroxyformamide] is 159.5 to 160.5 °C; for `O=CN(O)C(CCCO)CS(=O)(=O)c1ccc(-c2ccc(C(F)(F)F)cc2)cc1` (racemic) [Example 128, (±)-N-hydroxy-N-[4-hydroxy-1-[[[4′-(trifluoromethyl)[1,1′-biphenyl]-4-yl]sulfonyl]methyl]butyl]formamide] it is 138.9 to 140.3 °C.
Next, `COCOc1ccc(C(CS(=O)(=O)c2ccc(-c3ccc(C(F)(F)F)cc3)cc2)N(O)C=O)cc1` (racemic) [Example 129, (±)-N-hydroxy-N-[1-[4-(methoxymethoxy)phenyl]-2-[[4′-(trifluoromethyl)[1,1′-biphenyl]-4-yl]sulfonyl]ethyl]formamide]: 137.1 to 138.5 °C; `O=CN(O)C(CO)CS(=O)(=O)c1ccc(Oc2ccc(OC(F)(F)F)cc2)cc1` (racemic) [Example 138, (±)-N-hydroxy-N-[1-(hydroxymethyl)-2-[[4-[4-(trifluoromethoxy)phenoxy]phenyl]sulfonyl]ethyl]formamide]: 115 to 117 °C.
In the case of `CS(=O)(=O)c1ccc(-c2ccc(S(=O)(=O)CC(CO)N(O)C=O)cc2)cc1` (racemic) [Example 148, (±)-N-hydroxy-N-[1-(hydroxymethyl)-2-[[4′-(methylsulfonyl)[1,1′-biphenyl]-4-yl]sulfonyl]ethyl]formamide], the melting point is 165 to 167 °C.
Next, `CSc1ccc(-c2ccc(S(=O)(=O)CC(CO)N(O)C=O)cc2)cc1` (racemic) [Example 150, (±)-N-hydroxy-N-[1-(hydroxymethyl)-2-[[4′-(methylthio)[1,1′-biphenyl]-4-yl]sulfonyl]ethyl]formamide]: 161 to 162 °C; `O=CN(O)C(CO)CS(=O)(=O)c1ccc(-c2ccc(OC(F)(F)F)cc2)cc1` (racemic) [Example 151, (±)-N-hydroxy-N-[1-(hydroxymethyl)-2-[[4′-(trifluoromethoxy)[1,1′-biphenyl]-4-yl]sulfonyl]ethyl]formamide]: 167 to 168 °C.
The molecule `O=CN(O)C(CO)CS(=O)(=O)c1ccc(-c2ccc(Cl)cc2)cc1` (racemic) [Example 152, (±)-N-hydroxy-N-[1-(hydroxymethyl)-2-[(4′chloro[1,1′-biphenyl]-4-yl)sulfonyl]ethyl]formamide] yielded a melting point of 153 to 154 °C.

These data come from patent publication US20020007060A1, “Reverse hydroxamate inhibitors of matrix metalloproteinases” (priority 1998, published 2002).
